According to publication PMC8152814, “The modulatory role of sulfated and non-sulfated small molecule heparan sulfate-glycomimetics in endothelial dysfunction: absolute structural clarification, molecular docking and simulated dynamics, SAR analyses and ADMET studies” (RSC Medicinal Chemistry, 2021):
Read-outs that look alike come from different tables or passages of the source.

Experiments:
[1] = Turbidimetric kinetic aqueous solubility; assay type: physicochemical
Experimental: Physicochemical and ADMET properties of representative glycomimetics. […] The cells were incubated for 30 min in Hepes-buffered solution containing 10 μmol/L dihydroethidium (DHE), which intercalates with DNA in the presence of ROS and is detectable by fluorescence. Cells were counterstained with the nuclear stain DAPI at 0.3 μmol/L. In the following 24 h, the cell cultures were examined using a fluorescence microscope (Leica DMIRB). Sections were photographed and fluorescence was quantified using ImageJ. All parameters (pinhole, contrast, gain and offset) were held constant for all sections from the same experiment. ROS production was estimated from the ratio of ethidium/DAPI fluorescence.S6 Western blot analysis HepG2 wells were lysed in RIPA buffer containing proteinase inhibitors and the total protein was quantified using BCA protein assay kit (Pierce Biotechnology). Proteins (30 μg/well) were denatured and separated by sodium dodecyl sulfate (SDS)-polyacrylamide gel electrophoresis and transferred to polyvinylidene difluoride (PVDF) membranes. Blots were blocked for 1 h in 5% semi-skimmed milk/Tris-Buffered Saline Tween-20 (TBS-T), probed with primary rabbit anti-phospho-protein kinase B (Akt), rabbit anti-Akt (Santa Cruz Biotechnology), rabbit polyclonal anti-phospho-eNOS (Cell Signaling) overnight at 4 °C followed by washing and incubation with the corresponding horse radish peroxidase-labelled secondary antibody for 1 h at room temperature. After washing with TBS-T, membranes were incubated with ECL reagent and visualized (Amersham Pharmacia Biotech). Densitometry analysis using ImageJ© (version 1.32j, NIH) was used to quantify the protein signal.S7 Turbidimetric Aqueous Solubility Test compound (10 mM in DMSO) was serially diluted to give solutions of 0.1, 0.3, 1 and 3 mM in DMSO. Each test compound concentration was then further diluted 1 in 100 in buffer (typically 0.01 M phosphate buffered saline pH 7.4) so that the final DMSO concentration is 1 % and the final test compound concentrations are 1, 3, 10, 30 and 100 µM. The experiment is performed at 37 °C and each concentration is incubated in 7 replicate wells. The plates are incubated for 2 h at 37 °C before the absorbance is measured at 620nm. Nicardipine (pH dependent) and pyrene (pH independent) are included as control compounds. The solubility is estimated from the concentration of test compound that produces an increase in absorbance above vehicle control (1% DMSO in buffer). S11

[2] = system: eNOS; assay: eNOS phosphorylation (Western blot) in FFA-stressed cells; assay type: cell-based, human; details: averaged % of increase (+) or decrease (−) compared to control (FFA induced oxidatively stressed endothelial cells), n = 3
From the text: The assays focused on the production of nitric oxide (NO) and the upregulation of nitric oxide synthase (eNOS), the production of reactive oxygen species (ROS) and the activity of nicotinamide adenine dinucleotide phosphate (NADPH) oxidase (Table 2). From the hypothesised model of heparan sulfate-glycomimetic activity,[17] the glycomimetics are proposed to attenuate the binding of HGF to the cMET receptor. This disruption to MET-receptor activation is proposed to modulate intracellular phosphorylation leading to an upregulation of eNOS and increased output of extracellular NO. […] Overall, the cross examination of NO output and reduction of ROS was used to determine the therapeutic action of the triaged glycomimetics α-4, R-10, S-10 and β-5, as well as 3 non-sulfated intermediates α-2, α-3 and β-3, on free fatty acid (FFA) induced, oxidatively stressed endothelial cell cultures (Table 2).
Biological assay and AMDET experimental details […]
Preparation of FFA-albumin complexes and cell treatments
To generate the in vitro model of oxidative stress, sodium palmitate was bound to bovine serum albumin (BSA) as outlined by Chavez and Summers,S2 with modifications. Sodium palmitate (FFA) was dissolved in EtOH at 60 °C and diluted 1:100 in M199 media supplemented with 2% fatty acid-free bovine serum albumin (BSA) and incubated for 1 h at 37 °C. HepG2 cells were treated with 1 μmol/L of the synthesized HS-glycomimetics in the presence of palmitate (100 μmol/L) for 3 h or pre-treated with glycomimetics for 12 h followed by 3 h palmitate (100 μmol/L). Control cells were incubated in serum free M199 containing 2% (wt/vol) fatty acid-free BSA. […]
HepG2 wells were lysed in RIPA buffer containing proteinase inhibitors and the total protein was quantified using BCA protein assay kit (Pierce Biotechnology). Proteins (30 μg/well) were denatured and separated by sodium dodecyl sulfate (SDS)-polyacrylamide gel electrophoresis and transferred to polyvinylidene difluoride (PVDF) membranes. Blots were blocked for 1 h in 5% semi-skimmed milk/Tris-Buffered Saline Tween-20 (TBS-T), probed with primary rabbit anti-phospho-protein kinase B (Akt), rabbit anti-Akt (Santa Cruz Biotechnology), rabbit polyclonal anti-phospho-eNOS (Cell Signaling) overnight at 4 °C followed by washing and incubation with the corresponding horse radish peroxidase-labelled secondary antibody for 1 h at room temperature. After washing with TBS-T, membranes were incubated with ECL reagent and visualized (Amersham Pharmacia Biotech). Densitometry analysis using ImageJ© (version 1.32j, NIH) was used to quantify the protein signal.S7 […]
(typically 0.01 M phosphate buffered saline pH 7.4) so that the final DMSO concentration is 1 % and the final test compound concentrations are 1, 3, 10, 30 and 100 µM. The experiment is performed at 37 °C and each concentration is incubated in 7 replicate wells. The plates are incubated for 2 h at 37 °C before the absorbance is measured at 620nm. Nicardipine (pH dependent) and pyrene (pH independent) are included as control compounds. The solubility is estimated from the concentration of test compound that produces an increase in absorbance above vehicle control (1% DMSO in buffer).

[3] = phosphate buffered saline, turbidimetric assay, PBS pH 7.4, 37 °C, 2 h, read-out: Kinetic solubility

solubility kinetic at 2 h [1, 3] [µM]	SMILES	eNOS phosphorylation [2]	solubility kinetic at 2 h ([1]; pH 7.4) [µM]
	COC(=O)c1cc(OC[C@@H](COS(=O)(=O)[O-])OS(=O)(=O)[O-])ccc1OCCCCOS(=O)(=O)[O-].[Na+].[Na+].[Na+] [Compound S-10, sodium (S)-3-(3-(methoxycarbonyl)-4-(4-(sulfonatooxy)butoxy)phenoxy)propane-1,2-diyl bis(sulfate)]	+397%	> 100
> 100	O=C([O-])c1cc(OC[C@H](COS(=O)(=O)[O-])OS(=O)(=O)[O-])ccc1OCC(COS(=O)(=O)[O-])OS(=O)(=O)[O-].[Na+].[Na+].[Na+].[Na+].[Na+] (mixture of isomers) [β-5, sodium 5-((R)-2,3-bis(sulfonatooxy)propoxy)-2-(2,3-bis(sulfonatooxy)propoxy)benzoate]	+318%	
> 100	COC(=O)c1cc(OC[C@@H](COS(=O)(=O)[O-])OS(=O)(=O)[O-])ccc1OCC(COS(=O)(=O)[O-])OS(=O)(=O)[O-].[Na+].[Na+].[Na+].[Na+] (mixture of isomers) [α-4, sodium 3-(4-((S)-2,3-bis(sulfonatooxy)propoxy)-2-(methoxycarbonyl)phenoxy)propane-1,2-diyl bis(sulfate)]	+342%	

SMILES	solubility kinetic at 2 h [1, 3] [µM]	eNOS phosphorylation [2]	solubility kinetic at 2 h ([1]; pH 7.4) [µM]
COC(=O)c1cc(OC[C@H](COS(=O)(=O)[O-])OS(=O)(=O)[O-])ccc1OCCCCOS(=O)(=O)[O-].[Na+].[Na+].[Na+] [Compound R-10, sodium (R)-3-(3-(methoxycarbonyl)-4-(4-(sulfonatooxy)butoxy)phenoxy)propane-1,2-diyl bis(sulfate)]	> 100	+613%	
